target: T1, PPARα (Homo sapiens, UniProt Q07869); test: PPARα CALUX reporter gene assay; type: cell-based; parameters: key: –: no effect observed up to the highest test concentration; conditions: PC10, 24 h exposure
T1 construct: expression construct for the full-length human receptor under investigation; expressed in transfected cells; host or cells: human U2-OS cells (ATCC HTB-96), stably transfected
T1 sequence (Q07869 1-468): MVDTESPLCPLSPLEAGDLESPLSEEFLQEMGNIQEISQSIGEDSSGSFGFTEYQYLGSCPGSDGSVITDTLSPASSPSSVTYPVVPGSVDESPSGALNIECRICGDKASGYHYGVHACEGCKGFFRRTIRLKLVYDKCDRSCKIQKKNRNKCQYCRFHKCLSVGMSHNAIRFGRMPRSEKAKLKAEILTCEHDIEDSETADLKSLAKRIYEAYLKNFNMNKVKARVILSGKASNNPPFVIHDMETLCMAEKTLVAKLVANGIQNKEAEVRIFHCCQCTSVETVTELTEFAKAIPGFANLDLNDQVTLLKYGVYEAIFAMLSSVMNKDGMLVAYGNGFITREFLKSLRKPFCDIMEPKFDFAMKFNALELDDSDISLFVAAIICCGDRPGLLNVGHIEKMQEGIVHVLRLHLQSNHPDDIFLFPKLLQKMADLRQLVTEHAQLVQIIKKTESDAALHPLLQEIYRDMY
Source text: Succinyl chloride (2 M soln. in dichloromethane), N-methylbutylamine 90%, N-ethylbutylamine 95%, Dibutylamine 99% were purchased from TCI chemicals. K60 silica was purchased from Merck chemicals. Succinic acid ≥99.0%, N-methylpyrrolidinone 99.0%, 1-bromooctane ≥97.0%, 1-methylimidazole 99.0%, iodobenzene 99.9%, methylacrylate 99.9%, palladium(II) acetate ≥99.9% trace metals basis, triethylamine ≥99.0%, trimesic acid 95%, copper(II) nitrate trihydrate ≥99.0%, 2-methylimidazole 99.0%, zinc(II) nitrate hexahydrate ≥99.0%, para-cymene 99.0%, 1,4-dioxane 99.8% (anhydrous), 4-nitroaniline ≥99.0%, 1-octanol ≥99.0%, diglyme ≥99.0%, DMSO-d6 (99.8% D) and chloroform-d (99.8% D) were purchased from Sigma-Aldrich. Toluene ≥99.0%, hexane ≥99.5%, DCM ≥99.5%, chloroform ≥99.5%, DMSO ≥99.0% were purchased from VWR. N,N-diethyl-4-nitroaniline ≥98.0% was purchased from Alfa Aeser. Cyrene was supplied by Circa group. N-butylpyrrolidinone was supplied by Eastman chemicals. N,N-dimethylformamide 99.9% and N,N-dimethylacetamide 99.9% were purchased from Fischer. The flakes of Ultrason® E3020 P Polyarylethersulfone of 55,000 Da were obtained from INGE.BASF, Germany. The CALUX cell lines have been described previously.[1] They are based on human U2-OS cells (ATCC, HTB-96) stably transfected with an expression construct for the full-length human receptor under investigation, and a reporter construct consisting of multimerized responsive elements for the cognate receptor coupled to a minimal promoter element (TATA) and a luciferase gene. Cells were maintained as described previously,[2] using cell culture media and supplements from Fisher Scientific as described in the experimental procedures section. […]
In vitro reporter gene assays
The automated CALUX assays were carried out similarly as described earlier,[12] with some adaptations. In brief, the assay was performed in CO2 independent medium (Fisher Scientific, […]
supplement (Fisher Scientific, 11574466), 10 U/mL penicillin and 10 µg/mL streptomycin. A cell suspension in assay medium was made of 1 × 10^5cells/mL, and white 384-wells plates were seeded with 30 µl cell suspension/well. After 24 h, exposure medium was prepared. A dilution series in 0.5log unit increments of each test compound (in DMSO) was added to a 96-wells plate containing assay medium (2% v/v). Of this exposure mixture, 30 µl was added to the assay plates containing the CALUX cells, resulting in a final DMSO concentration of 1%. Additionally, DMSO blanks and a full dose response curve of the relevant reference compound were included on each plate. All samples were tested in triplicate. The preparation of the compound dilution series as well as the exposure of the cells were performed on a Hamilton StarLET liquid handling robot coupled to a Cytomat incubator.
Directly after exposure, plates were sealed with non-breathing plate seals (Plate sealer, easy seal transparent; Greiner-Bio-One, 676001). After 24 h the exposure medium was removed using an EL406 washer-dispenser (BioTek) and 10 µl/well triton lysisbuffer was added by the EL406.
Subsequently, the luciferase signal was measured in a luminometer (InfinitePro coupled to a Connect Stacker, both TECAN). In order to be able to detect receptor antagonism, several assays were also performed in antagonistic mode. […]
The luminometer data was analysed as follows; the average of the triplicate wells was determined, and the average blank (DMSO) value was subtracted. […]

SMILES	LEC PPARα
CCCCN(CC)C(=O)CCC(=O)N(CC)CCCC [EBSA, N,N′‐diethyl‐N,N′‐dibutylsuccindiamide]	–
CCCCN(C)C(=O)CCC(=O)N(C)CCCC [MBSA, N,N′‐dimethyl‐N,N′‐dibutylsuccindiamide]	–
CCCCN1CCCC1=O [NBP, N‐Butylpyrrolidinone, reference compound]	–

Results, then the compound that gave them:

LEC PPARα	SMILES
–	CCCCN(CCCC)C(=O)CCC(=O)N(CCCC)CCCC [TBSA, N,N,N′,N′‐tetrabutylsuccindiamide]
–	CN1CCCC1=O [NMP, N‐methyl‐2‐pyrrolidone, reference compound]
